Experimental data as given in the supplement of paper PMC7287046.

Key:
Details in all cases: exposure time: 72 h
T98 = tested on: T98
Procedure: (§1)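 Glioma cell lines and primary cultures were treated with single drugs in a nine-step threefold dilution series, about 72 h. Viability was read by CellTiter-Glo and normalised to untreated controls. Absolute IC50 was fitted in GraphPad Prism; values beyond the tested dose range are censored at the block's top or lowest dose.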

U118 = tested on: U118
Procedure: as §1

SF268 = tested on: SF268
Procedure: as §1

SNB75 = tested on: SNB75
Procedure: as §1

SF539 = tested on: SF539
Procedure: as §1

KNS42 = tested on: KNS42
Procedure: as §1

U251 = tested on: U251
Procedure: as §1

U87 = tested on: U87
Procedure: as §1

AM38 = tested on: AM38
Procedure: as §1

CAS-1 = tested on: CAS-1
Procedure: as §1

Structure (SMILES)	IC50 (absolute, viability) (U251) [nM]	IC50 (absolute, viability) (U87) [µM]	IC50 (absolute, viability) (T98) [µM]	IC50 (absolute, viability) (U118) [µM]	IC50 (absolute, viability) (SF268) [µM]	IC50 (absolute, viability) (SNB75) [µM]	IC50 (absolute, viability) (SF539) [µM]	IC50 (absolute, viability) (KNS42) [µM]	IC50 (absolute, viability) (AM38) [µM]	IC50 (absolute, viability) (CAS-1) [µM]
N#CC(c1ccnc(NCCc2cccnc2)n1)c1nc2ccccc2s1 (stereo unspecified)	11300	24.5	7.19	20.1	7.05	13.1	3.71	27.3	10	–
CC(=O)O[C@@]12CO[C@@H]1C[C@H](O)[C@@]1(C)C(=O)[C@H](O)C3=C(C)[C@@H](OC(=O)[C@H](O)[C@@H](NC(=O)OC(C)(C)C)c4ccccc4)C[C@@](O)([C@@H](OC(=O)c4ccccc4)[C@H]21)C3(C)C [Docetaxel]	0.0604	0.00273	0.000818	0.0101	0.00231	0.00167	0.000628	0.00438	0.00128	0.0437
C#Cc1cccc(Nc2ncnc3cc(OCCOC)c(OCCOC)cc23)c1 [Erlotinib]	–	11.6	27.5	35.5	38.1	15	25	27.2	27.8	> 50
Nc1ccn([C@@H]2O[C@H](CO)[C@@H](O)C2(F)F)c(=O)n1 [Gemcitabine]	149	0.0279	0.45	0.32	0.21	0.147	0.182	0.859	0.145	0.207

More lines, main results first:

IC50 (absolute, viability) (U251) [nM]	IC50 (absolute, viability) (U87) [µM]	Structure (SMILES)	IC50 (absolute, viability) (T98) [µM]	IC50 (absolute, viability) (U118) [µM]	IC50 (absolute, viability) (SF268) [µM]	IC50 (absolute, viability) (SNB75) [µM]	IC50 (absolute, viability) (SF539) [µM]	IC50 (absolute, viability) (KNS42) [µM]	IC50 (absolute, viability) (AM38) [µM]	IC50 (absolute, viability) (CAS-1) [µM]
5070	6.69	Cc1cc([C@@H](C)Nc2ccccc2C(=O)O)c2nc(N3CCOCC3)cc(=O)n2c1 [AZD6482]	8.39	22	13.9	9.91	4.86	41.4	8.35	3.15
330	3.63	C[C@@H](Oc1cc(-c2cnn(C3CCNCC3)c2)cnc1N)c1c(Cl)ccc(F)c1Cl [Crizotinib]	1.88	< 0.0229	0.0296	–	< 0.0229	25	–	> 50
48700	12	CCOc1nc(NC(=O)Cc2cc(OC)ccc2OC)cc(N)c1C#N [JNK inhibitor VIII]	6.36	28.8	21.1	8.38	7.09	36.5	15.8	20.2
